Results as given in US6310037A, “Method of controlling protozoan infections using syringomycin-family lipodepsipeptides” (Utah State University, priority 1999, dated 2001).
Where “and” joins values, the source holds several entries; their conditions need not be identical. Equal entries are not always repeated. Where two headings read alike, the source gives them in different places. Where a SMILES comes first, the peptide text is derived from it. Bridges are numbered along the chain shown (N, C = ends). [ ]: non-standard residue; d: D form. The star is where a group is joined. Asp(3S-OH) = N[C@H](C(=O)O)[C@H](O)C(=O)O; Thr(4-Cl) = N[C@H](C(=O)O)[C@H](O)CCl; X1 = CCCCCCCCC[C@@H](O)CC(=O)*; dDab = NCC[C@@H](N)C(=O)O; Dab = NCC[C@H](N)C(=O)O; Dhb = C/C=C(\N)C(=O)O

Key:
Format in all cases: cell-based, C. parvum (bovine isolate)
[1] = system: C. parvum; details: MDBK cells; for Infection % (Day 5) / Infection % (Day 2): % of untreated control; for Infection % (Day 2): mean ± SEM
Method: (§1) C. parvum (bovine isolate) oocysts used in this study were originally donated by the U.S. Department of Agriculture, Ames, Iowa. The oocysts were isolated from calf manure, preserved in 2.5% potassium dichromate at 4° C., and used within 3 months of purification. Oocysts were decontaminated by suspension in 20% (vol/vol) 1.05% sodium hypochlorite on ice for 20 minutes. Oocysts were then washed three times in Hanks' balanced salt solution ("HBSS") and once in RPMI 1640 (available from Sigma, St. Louis, Mo.). Release of sporozoites was achieved by incubating oocysts in an excystation solution consisting of 0.25% (wt/vol) trypsin (available from Sigma, St. Louis, Mo.) and 0.75% (wt/vol) taurodeoxycholic acid (available from Sigma) in HBSS. The resulting suspension was incubated at 37° C. for 45 minutes and microscopically observed to confirm sporozoite release. Sporozoites were completely separated from intact oocysts and oocyst walls by passage through sterile polycarbonate filters (3 micron pore size, available from Millipore Corp., Bedford, Mass.) twice prior to inoculation of bovine fallopian tube epithelial ("BFTE") cell monolayers.
Coverslips were removed at 5, 24, 48, 72, 96, and 120 hours from the inoculated wells containing monolayers of BFTE cells. The coverslips were washed in RPMI 1640, fixed in 100% methanol for 10 minutes, rinsed twice with 25 mM PBS, and stained with an indirect immunofluorescent assay (IFA) using monoclonal antibody (Mab) 5H11. Mab 5H11 specifically reacts with an antigen present on intermediate stages of C. parvum development. Coverslips were then mounted on glass slides and examined under oil immersion (1000×), using […] microscopy. Parasites were enumerated by counting all developmental stages of C. parvum present in a single scan (67 fields) through the center of each coverslip. The data were statistically compared for significance, using analysis of variance (Fischer's protected least-significant-difference test using a "STATVIEW" statistical analysis application developed by Abacus Concepts, Inc., Berkeley, Calif.).
Madin-Darby bovine kidney (MDBK) epithelial cells were also used to culture C. parvum in this study. Dulbecco's modified Eagle medium (DMEM) with 10% FBS was used for routine passage of MDBK cells purchased from American Type Collection for Culture (Rockville, Md.). Mycoplasma contamination was periodically checked with Hoechst staining (Uphoff et al., 1992). At confluence, MDBK cells were lifted from culture flasks with trypsin, enumerated, and redistributed to assay plates. Ninety-six well cell culture plates were employed to assess cytotoxicity of testing agents or the parasite or both to host cells using neutral red staining or lactic dehydrogenase (LDH) assay.
For enumeration of C. parvum development in culture, 24-well plates were used with a sterile glass coverslip placed in each well. DMEM base was used at and post C. parvum inoculation.
A single concentration of Syr-E at 15 μg/ml was used to treat MDBK cells at pH 7 with C. parvum infection. Group 1 served as an infection control, receiving no Syr-E treatment. Syr-E was administered 1 day prior to parasite inoculation to groups 2, 4, and 5, at the inoculation day to groups 3-5, and 1 day post inoculation to groups 3 and 5, respectively. Following specified administration day(s), supernatants of corresponding wells containing Syr-E were removed and replaced with fresh DMEM base. Cytotoxicity was monitored using lactic dehydrogenase (LDH) assay on day 1 post inoculation. Three coverslips from each group were collected on days 2 and 5 post inoculation, were fixed, and were stained with the specific IFA, as described with reference to Example II.
Therefore, MDBK cells were employed to explore the inhibitory effect of Syr-E on C. parvum development in vitro, as shown in FIG. 3. […]

[2] = system: C. parvum; details: MDBK cells, day 2 post inoculation
[3] = system: C. parvum; assay: C. parvum development in BFTE cell culture at pH 6.3; details: BFTE cells, pH 6.3, day 2 post inoculation
Method: as §1
Primary BFTE cell cultures were prepared from bovine fallopian tubes (FT). […]
The inhibitory effect of Syr-E on C. parvum development was monitored in BFTE cell culture at pH 6.3. […]

[4] = Group 2: Syr-E 15 μg/ml, 1 day, prior to inoculation, pH 7
[5] = Group 3: Syr-E 15 μg/ml, 2 days, at and post inoculation, pH 7
[6] = Group 4: Syr-E 15 μg/ml, 2 days, prior to and at inoculation, pH 7
[7] = Group 5: Syr-E 15 μg/ml, 3 days, prior to, at, and post inoculation, pH 7

C/C=C1\NC(=O)[C@H](Cc2ccccc2)NC(=O)[C@H](CCCNC(=N)N)NC(=O)[C@H](CCN)NC(=O)[C@@H](CCN)NC(=O)[C@@H](CO)NC(=O)[C@@H](NC(=O)C[C@H](O)CCCCCCCCC)COC(=O)[C@H]([C@H](O)CCl)NC(=O)[C@H]([C@H](O)C(=O)O)NC1=O [Syr-E, Syringomycin-E] (X1-S[dS][dDab][Dab]RF[Dhb][Asp(3S-OH)][Thr(4-Cl)]; ester 1-C)
Infection % (Day 5) [1, 4]: 22% and 21.9% | Infection % (Day 2) [1, 4]: 13% and 12.9 ± 2.7% | Infection % (Day 5) [1, 5]: 11.7% | Infection % (Day 2) [1, 5]: 10.2 ± 2.1% | Infection % (Day 5) [1, 6]: 1.4% | Infection % (Day 2) [1, 6]: 1.1 ± 0.2% | Infection % (Day 5) [1, 7]: 1.0% | Infection % (Day 2) [1, 7]: 0.9 ± 0.1% | infection percentage of the untreated control ([1]; Syr-E 15 μg/ml, day 5 post inoculation): 14.7% | infection percentage ([1]; Syr-E 15 μg/ml, treatment prior to and at the inoculation, pH 7, day not given): approximately 1% | infection percentage compared to the untreated control ([2]; Syr-E 5.0 μg/ml): significantly (P<0.05) reduced the infection percentage | inhibition of parasite growth and development ([2]; Syr-E 20 μg/ml): 99.5% | infection percentage vs lower Syr-E concentrations (0.5 to 3.0 μg/ml) ([3]; Syr-E 9.0 μg/ml): further reduced the infection percentage significantly (P<0.01) | infection percentage vs non-treated controls ([3]; Syr-E 0.5, 1.0, 3.0 and 9.0 μg/ml): significantly (at least P<0.01) reduced the infection percentage
